According to ChEMBL document CHEMBL6074676, “Optimization and Biological Evaluation of Novel 1H-Pyrrolo[2,3-c]pyridin Derivatives as Potent and Reversible Lysine Specific Demethylase 1 Inhibitors for the Treatment of Acute Myelogenous Leukemia” (J Med Chem, 2024):

Columns and labels:
[1] = system: MV4-11; experiment: Antitumor activity against human MV4-11 cells xenografted in Nu/Nu female mouse model assessed as tumor growth inhibition at 20 mg/kg, sc administered 5 days per week and measured on day 17 relative to control; assay type: functional; conditions: MV4-11, 408 h, time 17 day, read-out: TGI
[2] = system: MV4-11; experiment: Antitumor activity against human MV4-11 cells xenografted in Nu/Nu female mouse model assessed as relative tumor growth rate at 20 mg/kg, sc administered 5 days per week and measured on day 17 relative to control; assay type: functional; conditions: time 17 day
[3] = system: MV4-11; experiment: Antitumor activity against human MV4-11 cells xenografted in Nu/Nu female mouse model assessed as reduction in tumor volume at 20 mg/kg, sc measured immediately (reference value: 131+/-53 mm3); assay type: functional
[4] = system: MV4-11; experiment: Antitumor activity against human MV4-11 cells xenografted in Nu/Nu female mouse model assessed as relative tumor volume at 20 mg/kg, sc administered 5 days per week and measured on day 17 (reference value: 9.52+/-4.19); assay type: functional; conditions: time 17 day
[5] = system: MV4-11; experiment: Antitumor activity against human MV4-11 cells xenografted in Nu/Nu female mouse model assessed as reduction in tumor volume at 20 mg/kg, sc administered 5 days per week and measured on day 17 (reference value: 1187+/-508 mm3); assay type: functional; conditions: time 17 day
[6] = target: T1, Amine oxidase [flavin-containing] B (Homo sapiens, UniProt P27338); experiment: biochemical
T1 sequence (P27338 whole entry): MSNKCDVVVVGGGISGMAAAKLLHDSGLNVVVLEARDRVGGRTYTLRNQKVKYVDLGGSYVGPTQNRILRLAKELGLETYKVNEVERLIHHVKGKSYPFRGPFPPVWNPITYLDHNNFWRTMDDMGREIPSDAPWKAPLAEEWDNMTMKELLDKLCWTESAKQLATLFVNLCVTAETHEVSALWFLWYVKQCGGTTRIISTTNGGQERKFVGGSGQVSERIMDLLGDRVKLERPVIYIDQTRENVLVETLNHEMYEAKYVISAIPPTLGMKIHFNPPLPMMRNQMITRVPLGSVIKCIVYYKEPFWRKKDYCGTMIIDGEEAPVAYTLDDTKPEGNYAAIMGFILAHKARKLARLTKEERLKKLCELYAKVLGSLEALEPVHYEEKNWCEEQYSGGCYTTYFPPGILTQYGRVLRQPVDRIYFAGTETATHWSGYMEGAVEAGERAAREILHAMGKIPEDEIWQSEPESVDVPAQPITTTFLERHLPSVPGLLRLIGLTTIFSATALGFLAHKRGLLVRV
Description: Inhibition of human recombinant MAO-B expressed in baculovirus infected BTI cells by luminescence assay

[7] = target: T2, Lysine-specific histone demethylase 2 (Homo sapiens, UniProt Q8NB78); experiment: Inhibition of N-terminal GST-tagged recombinant full length human LSD2 expressed in Baculovirus using Bio- H3K4me2 (1 to 24 residues) as substrate incubated for 1 hr by TR-FRET assay
T2 sequence (Q8NB78 whole entry): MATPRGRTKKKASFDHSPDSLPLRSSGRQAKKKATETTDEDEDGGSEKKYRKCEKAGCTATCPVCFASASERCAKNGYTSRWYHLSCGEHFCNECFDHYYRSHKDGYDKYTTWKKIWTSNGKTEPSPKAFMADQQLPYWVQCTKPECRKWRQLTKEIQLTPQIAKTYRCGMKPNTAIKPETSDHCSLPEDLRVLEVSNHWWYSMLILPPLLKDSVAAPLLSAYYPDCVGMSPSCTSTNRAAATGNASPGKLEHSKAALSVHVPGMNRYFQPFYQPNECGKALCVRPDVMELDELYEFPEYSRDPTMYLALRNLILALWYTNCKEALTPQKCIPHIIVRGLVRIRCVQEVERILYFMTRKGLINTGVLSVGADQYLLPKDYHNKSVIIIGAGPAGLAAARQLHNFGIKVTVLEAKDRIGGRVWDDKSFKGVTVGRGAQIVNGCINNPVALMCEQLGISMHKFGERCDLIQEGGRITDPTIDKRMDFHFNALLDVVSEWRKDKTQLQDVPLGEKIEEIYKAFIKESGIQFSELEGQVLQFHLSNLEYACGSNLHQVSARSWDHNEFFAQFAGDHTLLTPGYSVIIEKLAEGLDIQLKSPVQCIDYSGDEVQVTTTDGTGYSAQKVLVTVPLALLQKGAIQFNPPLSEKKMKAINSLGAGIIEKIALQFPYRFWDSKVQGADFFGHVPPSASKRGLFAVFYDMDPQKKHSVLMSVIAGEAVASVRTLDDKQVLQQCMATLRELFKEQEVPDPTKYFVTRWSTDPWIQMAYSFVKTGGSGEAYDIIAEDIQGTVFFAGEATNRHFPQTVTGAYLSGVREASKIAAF

[8] = target: T3, Amine oxidase [flavin-containing] A (Homo sapiens, UniProt P21397); experiment: biochemical
T3 sequence (P21397 whole entry): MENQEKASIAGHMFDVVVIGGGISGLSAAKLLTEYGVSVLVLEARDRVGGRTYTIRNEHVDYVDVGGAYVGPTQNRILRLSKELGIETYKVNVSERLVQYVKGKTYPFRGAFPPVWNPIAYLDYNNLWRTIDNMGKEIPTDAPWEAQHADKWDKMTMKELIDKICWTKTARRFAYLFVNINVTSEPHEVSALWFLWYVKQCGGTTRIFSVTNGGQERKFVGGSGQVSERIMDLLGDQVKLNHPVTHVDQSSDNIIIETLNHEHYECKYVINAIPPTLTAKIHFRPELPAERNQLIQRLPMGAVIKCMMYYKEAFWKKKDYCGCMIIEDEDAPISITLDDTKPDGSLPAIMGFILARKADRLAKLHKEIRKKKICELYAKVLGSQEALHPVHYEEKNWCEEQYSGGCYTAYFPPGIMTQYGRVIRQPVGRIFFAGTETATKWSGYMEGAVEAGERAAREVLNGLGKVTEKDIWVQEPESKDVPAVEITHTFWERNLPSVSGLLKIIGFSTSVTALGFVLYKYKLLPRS
Description: Inhibition of human recombinant MAO-A expressed in baculovirus infected BTI cells by luminescence assay

[9] = target: T4, Cytochrome P450 1A2 (Homo sapiens, UniProt P05177); experiment: Inhibition of CYP1A2 in human liver microsomes; assay type: ADME, Microsome
T4 sequence (P05177 whole entry): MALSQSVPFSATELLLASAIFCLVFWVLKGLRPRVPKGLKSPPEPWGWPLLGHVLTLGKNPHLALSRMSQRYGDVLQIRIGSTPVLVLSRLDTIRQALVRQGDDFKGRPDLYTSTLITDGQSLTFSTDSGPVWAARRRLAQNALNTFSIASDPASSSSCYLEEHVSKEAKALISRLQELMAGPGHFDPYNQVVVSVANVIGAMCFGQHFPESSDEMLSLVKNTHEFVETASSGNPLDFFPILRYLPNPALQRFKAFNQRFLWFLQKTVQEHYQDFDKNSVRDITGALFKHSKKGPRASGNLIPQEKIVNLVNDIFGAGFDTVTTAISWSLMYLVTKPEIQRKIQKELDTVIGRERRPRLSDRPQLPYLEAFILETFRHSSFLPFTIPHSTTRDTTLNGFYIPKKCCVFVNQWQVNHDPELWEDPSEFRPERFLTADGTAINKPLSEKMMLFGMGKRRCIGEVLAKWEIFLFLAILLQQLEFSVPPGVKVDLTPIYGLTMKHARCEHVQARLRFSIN

[10] = target: Cytochrome P450 3A4 (Homo sapiens, UniProt P08684); experiment: Inhibition of CYP3A4 in human liver microsomes; assay type: ADME, Microsome
Cytochrome P450 3A4, sequence (P08684 whole entry): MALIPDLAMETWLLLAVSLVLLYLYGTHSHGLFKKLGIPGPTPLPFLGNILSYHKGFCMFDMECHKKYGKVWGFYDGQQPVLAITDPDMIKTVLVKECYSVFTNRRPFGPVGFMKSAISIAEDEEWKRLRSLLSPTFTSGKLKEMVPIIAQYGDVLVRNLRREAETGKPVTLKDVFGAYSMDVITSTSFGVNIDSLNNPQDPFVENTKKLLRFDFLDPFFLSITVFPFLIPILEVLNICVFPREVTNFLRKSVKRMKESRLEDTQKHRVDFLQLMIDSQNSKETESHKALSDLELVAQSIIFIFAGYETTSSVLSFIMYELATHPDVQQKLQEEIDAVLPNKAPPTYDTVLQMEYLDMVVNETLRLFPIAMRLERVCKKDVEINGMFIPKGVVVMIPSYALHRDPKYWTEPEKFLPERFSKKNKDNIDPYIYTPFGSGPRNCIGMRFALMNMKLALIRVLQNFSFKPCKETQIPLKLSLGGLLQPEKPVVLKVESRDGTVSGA

[11] = target: Cytochrome P450 2D6 (Homo sapiens, UniProt P10635); experiment: Inhibition of CYP2D6 in human liver microsomes; assay type: ADME, Microsome
Cytochrome P450 2D6, sequence (P10635 whole entry): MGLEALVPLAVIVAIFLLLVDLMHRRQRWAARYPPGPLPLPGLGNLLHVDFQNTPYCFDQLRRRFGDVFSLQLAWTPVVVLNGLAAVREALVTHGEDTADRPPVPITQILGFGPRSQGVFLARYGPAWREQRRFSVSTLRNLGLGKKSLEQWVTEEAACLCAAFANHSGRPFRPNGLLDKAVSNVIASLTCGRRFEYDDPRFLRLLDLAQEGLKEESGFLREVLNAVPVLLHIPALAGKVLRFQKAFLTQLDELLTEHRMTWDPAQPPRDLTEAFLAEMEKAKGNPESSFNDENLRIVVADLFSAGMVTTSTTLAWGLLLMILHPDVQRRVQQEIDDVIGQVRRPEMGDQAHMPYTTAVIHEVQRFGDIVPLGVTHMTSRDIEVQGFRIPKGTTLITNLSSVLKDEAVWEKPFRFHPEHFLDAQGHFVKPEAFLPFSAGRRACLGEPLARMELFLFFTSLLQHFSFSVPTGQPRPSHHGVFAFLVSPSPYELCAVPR

[12] = target: Cytochrome P450 2C19 (Homo sapiens, UniProt P33261); experiment: Inhibition of CYP2C19 in human liver microsomes; assay type: ADME, Microsome
Cytochrome P450 2C19, sequence (P33261 whole entry): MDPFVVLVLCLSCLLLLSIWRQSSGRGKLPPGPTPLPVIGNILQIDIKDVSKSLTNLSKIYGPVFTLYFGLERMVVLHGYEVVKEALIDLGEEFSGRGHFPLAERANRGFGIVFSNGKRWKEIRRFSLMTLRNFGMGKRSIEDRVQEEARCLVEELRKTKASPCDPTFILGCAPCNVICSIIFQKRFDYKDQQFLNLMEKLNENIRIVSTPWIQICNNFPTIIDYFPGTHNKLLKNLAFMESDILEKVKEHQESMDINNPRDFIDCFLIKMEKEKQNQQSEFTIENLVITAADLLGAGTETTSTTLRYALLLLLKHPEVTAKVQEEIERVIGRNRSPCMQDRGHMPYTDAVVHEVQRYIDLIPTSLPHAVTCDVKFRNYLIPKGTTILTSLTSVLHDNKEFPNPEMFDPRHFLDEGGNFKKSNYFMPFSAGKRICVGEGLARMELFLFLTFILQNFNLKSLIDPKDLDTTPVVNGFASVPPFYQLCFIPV

[13] = target: Cytochrome P450 2C9 (Homo sapiens, UniProt P11712); experiment: Inhibition of CYP2C9 in human liver microsomes; assay type: ADME, Microsome
Cytochrome P450 2C9, sequence (P11712 whole entry): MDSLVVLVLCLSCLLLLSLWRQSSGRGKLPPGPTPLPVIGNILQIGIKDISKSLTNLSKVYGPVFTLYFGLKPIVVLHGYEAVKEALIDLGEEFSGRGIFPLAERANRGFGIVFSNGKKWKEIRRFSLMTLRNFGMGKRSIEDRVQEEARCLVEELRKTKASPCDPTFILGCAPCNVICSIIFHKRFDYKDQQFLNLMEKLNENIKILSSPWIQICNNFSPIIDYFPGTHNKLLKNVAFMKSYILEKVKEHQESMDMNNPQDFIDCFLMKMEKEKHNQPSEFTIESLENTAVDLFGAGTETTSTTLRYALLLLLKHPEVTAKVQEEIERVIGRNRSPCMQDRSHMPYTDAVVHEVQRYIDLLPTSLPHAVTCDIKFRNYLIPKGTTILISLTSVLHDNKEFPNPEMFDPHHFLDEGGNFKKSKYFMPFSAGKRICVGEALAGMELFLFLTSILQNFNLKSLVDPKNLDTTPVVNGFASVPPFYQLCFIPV

[14] = system: MV4-11; experiment: Antitumor activity against human MV4-11 cells xenografted in Nu/Nu female mouse model assessed as relative tumor volume at 20 mg/kg, po qd and measured on day 17 (reference value: 9.52+/-4.19); assay type: functional; conditions: time 17 day
[15] = system: MV4-11; experiment: Antitumor activity against human MV4-11 cells xenografted in Nu/Nu female mouse model assessed as reduction in tumor volume at 20 mg/kg, po qd measured immediately (reference value: 131+/-53 mm3); assay type: functional
[16] = system: MV4-11; experiment: Antitumor activity against human MV4-11 cells xenografted in Nu/Nu female mouse model assessed as reduction in tumor volume at 20 mg/kg, po qd and measured on day 17 (reference value: 1187+/-508 mm3); assay type: functional; conditions: time 17 day
[17] = system: Kasumi 1; experiment: Antiproliferative activity against human Kasumi 1 cells assessed as inhibition of cell growth incubated for 240 hrs by MTS assay; assay type: functional, cell-based; conditions: Kasumi 1, 240 h
[18] = Upregulation of CD86 mRNA expression level in human MV4-11 cells measured after 24 hrs by RT-qPCR analysis; assay type: functional, cell-based; conditions: MV4-11, 24 h
[19] = system: MV4-11; experiment: Antitumor activity against human MV4-11 cells xenografted in Nu/Nu female mouse model assessed as relative tumor growth rate at 20 mg/kg, po qd and measured on day 17 relative to control; assay type: functional; conditions: time 17 day
[20] = system: NCI-H526; experiment: Antiproliferative activity against human NCI-H526 cells assessed as inhibition of cell growth incubated for 240 hrs by MTS assay; assay type: functional, cell-based; conditions: NCI-H526, 240 h
[21] = system: MV4-11; experiment: Antitumor activity against human MV4-11 cells xenografted in Nu/Nu female mouse model assessed as tumor growth inhibition at 20 mg/kg, po qd and measured on day 17 relative to control; assay type: functional; conditions: MV4-11, 408 h, time 17 day, read-out: TGI

Compound	IC50 [6] [µM]	IC50 [7] [µM]	IC50 [8] [µM]	IC50 [9] [µM]	IC50 ([10]; read-out: IC50) [µM]	IC50 [11] [µM]	IC50 [12] [µM]	IC50 [13] [µM]	other results
Nc1ccn([C@@H]2O[C@H](CO)[C@@H](O)[C@@H]2O)c(=O)n1 [CYTARABINE]									inhibition in vivo at 20 mg/kg [1]: 54.7%; Activity [2]: 59.36%; Activity [3]: 131 mm3; Activity [4]: 5.65; Activity [5]: 741 mm3
CCn1c(CN2CC[C@H](N)C2)cc2c(-c3ccc(C#N)c(F)c3)c(-c3cc(C)c(C)c(C)c3)ncc21	> 20	> 20	> 20						
Cc1cc(-c2ncc3c(cc(CN4CC[C@H](N)C4)n3C(C)C)c2-c2ccc(C#N)c(F)c2)cc(C)c1C	> 20	> 20	> 20	> 50	4.96	> 50	17.9	30	
Cc1ccc(-c2ncc3c(cc(CN4CC[C@H](N)C4)n3C(C)C)c2-c2ccc(C#N)c(F)c2)cc1C	> 20	> 20	> 20	> 50	9.46	43.1	24.8	28.8	
Cc1cc(C)c(-c2ncc3c(cc(CN4CC[C@H](N)C4)n3C)c2-c2ccc(C#N)c(F)c2)cc1C	> 20	> 20	> 20						
Cc1cc(C)c(-c2ncc3c(cc(CN4CC[C@H](N)C4)n3C(C)C)c2-c2ccc(C#N)c(F)c2)cc1C	> 20	> 20	> 20	> 50		46.7		32.9	IC50 [10]: 4.53 µM
COc1ccc(-c2c(-c3ccc(C#N)c(F)c3)nc(N3CCC(N)CC3)n(C)c2=O)cc1F [PULRODEMSTAT]									Activity [14]: 3.75; Activity [15]: 132 mm3; Activity [16]: 554 mm3; IC50 [17]: 3 nM; EC50 [18]: 32 nM; Activity [19]: 39.33%; IC50 [20]: 10 nM; inhibition in vivo at 20 mg/kg [21]: 64.2%
Cc1ccc(-c2ncc3c(cc(CN4CC[C@H](N)C4)n3CC(F)F)c2-c2ccc(C#N)c(F)c2)cc1C	> 20	> 20	> 20	> 50	20.9	45.7	25.8	45.5	
Cc1cc(C)c(-c2ncc3c(cc(CN4CC[C@H](N)C4)n3CC(F)F)c2-c2ccc(C#N)c(F)c2)cc1C	> 20	> 20	> 20						
Cc1cc(C)c(-c2ncc3c(cc(CN4CC[C@H](N)C4)n3CC(F)(F)F)c2-c2ccc(C#N)c(F)c2)cc1C	> 20	> 20	> 20	> 50	7.74	20.4	22	27.3	
